US11186564B2, “Dual NAV1.2/5HT2a inhibitors for treating CNS disorders” (Sunovion Pharmaceuticals Inc., priority 2016, dated 2021)
Where two headings read alike, the source gives them in different places.

What was measured:
[1] = molecular target: T1, recombinant human serotonin receptor 5-HT2A (Homo sapiens, UniProt P28223); assay: 5-HT2A antagonist Ca2+ assay in CHO-K1 cells (method A aequorin luminescence / method B FLIPR fluorescence); assay type: cell-based; details: antagonist mode vs EC80 of reference agonist, method A or B
T1 construct: expressed in transfected cells; method B: loaded with Ca2+ dye
In short: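 IC50 was obtained by nonlinear regression of percent inhibition of the EC80 agonist Ca2+ response in CHO-K1 cells stably expressing human 5-HT2A. The readout was aequorin luminescence with agonist injected 15 min after compound (A), or Ca2+-dye fluorescence on FLIPR with serotonin as agonist (B).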

[2] = molecular target: human sodium channel NaV1.2 (Homo sapiens, UniProt Q99250); assay: NaV1.2 inhibition, automated patch-clamp (Q-Patch HTX), slow inactivated state (state C); assay type: cell-based; details: hNaV1.2 CHO cells, slow inactivated state; for inhibition at 10 µM: 10 μM compound, read-out: NaV1.2 (% inh), 10 μM; for IC50: read-out: NaV1.2 IC50; for inhibition at 1 µM: 1 μM compound, read-out: NaV1.2 (% inh), 1 μM
Excerpt: In vitro method for NaV1.2 inhibition assays: The methods utilized to assess the inhibitory activity of compounds on NaV1.2 were based on the methods described by Liu et al. [Liu Y, Beck E J, & Flores C M (2011): Validation of a patch clamp screening protocol that simultaneously measures compound activity in multiple states of the voltage-gated sodium channel Nav1.2. Assay Drug Development Technology 9, 628-634]. For these electrophysiology assays, a cell line (Chinese Hamster Ovarian K-1 cells (CHO K-1)) engineered to stably express human sodium channel NaV1.2 was purchased from Millipore Corporation (catalog no. CYL3023). The electrophysiology measurements were performed using automated patch-clamp methods on a Q-Patch HTX instrument by scientists at Evotec AG under contract with Sunovion.
The solutions utilized for the Qpatch experiments were similar buffered solutions to those described by Liu et al. [Liu Y, Beck E J, & Flores C M (2011)]. The extracellular solution contained 140 millimolar sodium chloride, 4 millimolar potassium chloride, 2 millimolar calcium chloride, 1 millimolar magnesium chloride, 10 millimolar 4-(2-hydroxyethyl)-1-piperazineethanesulfonic acid (HEPES), and 10 millimolar glucose (pH adjusted to 7.4 with sodium hydroxide). The intracellular solution contained 100 millimolar cesium fluoride, 45 millimolar cesium chloride, 10 millimolar HEPES, 5 millimolar ethylene glycol tetraacetic acid (EGTA), and 5 millimolar glucose (pH adjusted to 7.2 with cesium hydroxide).
The biophysical experiments of Lui et al. [Liu Y, Beck E J, & Flores C M (2011)] were replicated to assess the fast, slow and total inactivation characteristics of the human Nav1.2 channel
Based upon results from studies of the fast, slow and total inactivation characteristics of the human Nav1.2 channel, a voltage protocol involving a sequence of consecutive pulses of current was used to measure channel activity in several states [Liu Y, Beck E J, & Flores C M (2011)]. The monolayer of CHO K-1 cells stably expressing human sodium channel NaV1.2 (hNaV1.2 CHO cells) was maintained in the Qpatch instrument at a potential of −100 millivolts (mV) except when the voltage protocol was being executed. The first pulse in the protocol involved a 100 millisecond depolarization to 0 mV to enable measurement of channel availability in the closed state (state A). The potential was then maintained at −90 mV for 15 milliseconds, followed by a five millisecond period of depolarization to 0 mV to enable measurement of channel availability after partial recovery from fast inactivation (state B). Next, the potential was maintained at −90 mV for 300 milliseconds, followed by ten seconds at −50 mV, 15 milliseconds at −90 mV, and finally another five millisecond period of depolarization to 0 mV to enable measurement of channel availability after additional recovery from fast inactivation and significant entry into the slow inactivated state (state C). Finally, after an additional 300 millisecond period at −90 mV, another five millisecond period of depolarization to 0 mV was employed to enable measurement of channel availability after partial recovery from the slow inactivated state (state D). Measurements of activity at state C were used to assess the activity of the NaV1.2 channel in the slow inactivated state. Comparison of activity after addition of test compounds or reference compounds with activity after addition of vehicle only provided a measure of percent remaining activity from which percent inhibition was calculated. […] A slight modification of this protocol was utilized to provide measurements as a function of compound concentration, which enabled IC50 values to be determined. IC50 values were calculated by non-linear least squares regression of the data (percent inhibition of ion channel NaV1.2 activity in the slow inactivated state) onto equation (1): % inhibition=100%/(1+(IC50/[compound]) equation (1)
J Pharmacol Exp Ther. 2008 July; 326(1):89-99.].

T1 sequence (P28223 whole entry): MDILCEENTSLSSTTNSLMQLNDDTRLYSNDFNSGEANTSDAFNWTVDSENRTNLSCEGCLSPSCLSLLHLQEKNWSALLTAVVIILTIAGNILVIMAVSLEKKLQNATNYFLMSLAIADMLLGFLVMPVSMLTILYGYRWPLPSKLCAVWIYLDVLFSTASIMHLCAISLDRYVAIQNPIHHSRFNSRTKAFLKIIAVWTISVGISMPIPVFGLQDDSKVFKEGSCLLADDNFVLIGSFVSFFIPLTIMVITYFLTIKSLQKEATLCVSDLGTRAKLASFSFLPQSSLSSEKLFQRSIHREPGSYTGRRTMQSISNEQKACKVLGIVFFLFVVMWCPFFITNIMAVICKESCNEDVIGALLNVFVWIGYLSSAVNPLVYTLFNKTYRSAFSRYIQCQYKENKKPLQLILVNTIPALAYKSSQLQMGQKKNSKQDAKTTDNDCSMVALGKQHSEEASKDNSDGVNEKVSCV
Sequence of human sodium channel NaV1.2 (Q99250 whole entry): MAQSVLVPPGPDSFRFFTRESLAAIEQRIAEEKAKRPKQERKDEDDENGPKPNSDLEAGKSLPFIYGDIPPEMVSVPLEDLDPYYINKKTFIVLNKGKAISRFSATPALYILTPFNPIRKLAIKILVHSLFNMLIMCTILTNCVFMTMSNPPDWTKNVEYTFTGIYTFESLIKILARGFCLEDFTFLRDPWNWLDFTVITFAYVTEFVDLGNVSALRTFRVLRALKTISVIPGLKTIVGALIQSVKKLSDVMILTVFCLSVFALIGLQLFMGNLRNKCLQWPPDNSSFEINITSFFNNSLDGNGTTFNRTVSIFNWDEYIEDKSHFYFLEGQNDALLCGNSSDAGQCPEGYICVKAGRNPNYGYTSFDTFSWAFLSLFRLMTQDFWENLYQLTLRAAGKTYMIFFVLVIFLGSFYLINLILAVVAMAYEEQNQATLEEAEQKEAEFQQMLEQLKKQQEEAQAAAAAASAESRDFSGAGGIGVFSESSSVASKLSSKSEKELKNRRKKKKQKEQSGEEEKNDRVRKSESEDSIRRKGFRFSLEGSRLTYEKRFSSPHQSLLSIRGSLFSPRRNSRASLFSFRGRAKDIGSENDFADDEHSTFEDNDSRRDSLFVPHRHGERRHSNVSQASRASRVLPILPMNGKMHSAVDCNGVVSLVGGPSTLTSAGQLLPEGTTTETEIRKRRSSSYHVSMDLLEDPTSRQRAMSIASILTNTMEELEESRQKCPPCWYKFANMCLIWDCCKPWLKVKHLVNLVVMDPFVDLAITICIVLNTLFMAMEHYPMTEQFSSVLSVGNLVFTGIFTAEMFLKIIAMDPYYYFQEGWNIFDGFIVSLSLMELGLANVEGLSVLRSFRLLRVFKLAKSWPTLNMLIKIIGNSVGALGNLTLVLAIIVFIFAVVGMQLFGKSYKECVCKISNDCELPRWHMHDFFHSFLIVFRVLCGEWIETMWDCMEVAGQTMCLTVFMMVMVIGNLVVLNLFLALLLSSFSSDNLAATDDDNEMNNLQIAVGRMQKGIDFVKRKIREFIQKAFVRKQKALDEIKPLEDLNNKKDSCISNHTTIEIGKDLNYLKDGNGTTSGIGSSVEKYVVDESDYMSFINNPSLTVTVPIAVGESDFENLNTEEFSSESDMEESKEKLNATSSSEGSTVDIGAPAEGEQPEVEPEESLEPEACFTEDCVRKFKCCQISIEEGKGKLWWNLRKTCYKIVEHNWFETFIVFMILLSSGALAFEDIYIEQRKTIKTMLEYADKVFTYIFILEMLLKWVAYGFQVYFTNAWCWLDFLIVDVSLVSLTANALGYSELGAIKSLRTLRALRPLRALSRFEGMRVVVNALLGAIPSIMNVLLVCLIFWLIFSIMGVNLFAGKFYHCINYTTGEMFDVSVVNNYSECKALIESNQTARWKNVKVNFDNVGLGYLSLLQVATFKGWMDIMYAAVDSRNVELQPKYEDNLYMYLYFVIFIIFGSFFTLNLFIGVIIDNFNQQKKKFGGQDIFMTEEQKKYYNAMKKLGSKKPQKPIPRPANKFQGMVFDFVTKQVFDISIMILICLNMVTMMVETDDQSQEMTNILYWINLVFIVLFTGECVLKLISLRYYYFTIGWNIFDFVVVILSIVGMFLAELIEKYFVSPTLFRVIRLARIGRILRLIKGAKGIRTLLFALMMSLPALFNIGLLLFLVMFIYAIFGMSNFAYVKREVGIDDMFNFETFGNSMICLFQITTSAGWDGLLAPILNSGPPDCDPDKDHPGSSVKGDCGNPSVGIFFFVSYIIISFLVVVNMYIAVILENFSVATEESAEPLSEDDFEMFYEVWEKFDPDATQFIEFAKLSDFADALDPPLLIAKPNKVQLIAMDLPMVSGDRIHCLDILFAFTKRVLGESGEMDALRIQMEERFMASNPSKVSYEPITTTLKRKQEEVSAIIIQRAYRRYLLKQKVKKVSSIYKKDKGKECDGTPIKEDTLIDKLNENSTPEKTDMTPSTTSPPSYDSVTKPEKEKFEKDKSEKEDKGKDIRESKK

| IC50 ([1]; read-out: 5HT2A IC50) [µM] | inhibition at 10 µM [2] [%] | inhibition at 1 µM [2] [%] | Compound | IC50 [2] [nM] | IC50 ([1]; 5HT2A IC50, μM) [µM] |
| --- | --- | --- | --- | --- | --- |
| 0.04 | 93 |  | Clc1cccc(N2CCN(CCc3ccccc3)CC2)c1 [Example 64, 1-(3-chlorophenyl)-4-phenethylpiperazine] |  |  |
| 0.14 | 52 |  | O[C@@H](CCN1CCC(Oc2ccccc2)CC1)c1ccccc1 [Example 228, (S)-3-(4-phenoxypiperidin-1-yl)-1-phenylpropan-1-ol] |  |  |
| 0.14 | 53 |  | O[C@H](CCN1CCC(Oc2ccccc2)CC1)c1ccccc1 [Example 227, (R)-3-(4-phenoxypiperidin-1-yl)-1-phenylpropan-1-ol] |  |  |
| 0.09 |  | 32 | COc1ccccc1OC1CCN(CC2CCOc3ccccc32)CC1 (stereo not shown) [Example 162, 1-(chroman-4-ylmethyl)-4-(2-methoxyphenoxy)piperidine] |  |  |
| 0.29 |  | -1 | CC1(C)Oc2ccccc2C1CN1CCC(Oc2ccccc2)CC1 (stereo not shown) [Example 131, 1-((2,2-dimethyl-2,3-dihydrobenzofuran-3-yl)methyl)-4-phenoxypiperidine] |  |  |
| 0.61 |  | 11 | O=C1Nc2ccccc2CC12CCN(C[C@@H](O)COc1ccccc1)CC2 [Example 446, (R)-1-(2-hydroxy-3-phenoxypropyl)-1′,4′-dihydro-2′H-spiro[piperidine-4,3′-quinolin]-2′-one] |  |  |
| 0.01 |  | 25 | O=C1CCc2ccccc2N1CCN1CCC(Oc2ccc(F)cc2)CC1 [Example 190, 1-(2-(4-(4-fluorophenoxy)piperidin-1-yl)ethyl)-3,4-dihydroquinolin-2(1H)-one] |  |  |
| 0.18 |  | -10 | COc1ccccc1OC1CCN(CC2Cc3cccnc3C2)CC1 (stereo not shown) [Example 139, 6-((4-(2-methoxyphenoxy)piperidin-1-yl)methyl)-6,7-dihydro-5H-cyclopenta[b]pyridine] |  |  |
| > 4.2 | 21 |  | OC(COC1CCCCC1)CN1CCN(Cc2ccccc2)CC1 (stereo not shown) [Example 75, 1-(4-benzylpiperazin-1-yl)-3-(cyclohexyloxy)propan-2-ol] |  |  |
| 0.01 |  | 37 | COc1ccc2c(c1)C(CN1CCC(Oc3ccccc3C#N)CC1)CC2 (stereo not shown) [Example 98, 2-((1-((6-methoxy-2,3-dihydro-1H-inden-1-yl)methyl)piperidin-4-yl)oxy)benzonitrile] |  |  |
| 0.07 |  | 14 | O=C1c2ccccc2CN1CCN1CCC(Oc2ccc(F)cc2)CC1 [Example 187, 2-(2-(4-(4-fluorophenoxy)piperidin-1-yl)ethyl)isoindolin-1-one] |  |  |
| 0.03 |  | 29 | c1ccc2c(c1)CCC1(CCN(CC3CCc4ccccc43)C1)O2 (stereo not shown) [Example 387, 1′-((2,3-dihydro-1H-inden-1-yl)methyl)spiro[chromane-2,3′-pyrrolidine]] |  |  |
| 0.45 | 76 |  | COc1cccc(OC2CCN(CCN3CCCc4ccccc4C3=O)CC2)c1 [Example 205, 2-(2-(4-(3-methoxyphenoxy)piperidin-1-yl)ethyl)-2,3,4,5-tetrahydro-1H-benzo[c]azepin-1-one] |  |  |
| 5.28 |  | 5 | c1ccc(N2C[C@@H]3CC[C@H]2CN3CCC2COCc3ccccc32)cc1 (stereo partly drawn) [Example 315, (1S,4S)-2-(2-(isochroman-4-yl)ethyl)-5-phenyl-2,5-diazabicyclo[2.2.2]octane] |  |  |
| 0.002 | 91 |  | Fc1ccc(OCCCN2CCN(c3nsc4ccccc34)CC2)cc1 [Example 73, 3-(4-(3-(4-fluorophenoxy)propyl)piperazin-1-yl)benzo[d]isothiazole] |  |  |
| 0.26 |  | 29 | c1ccc2c(c1)CCC1(CCN(CC3COCc4ccccc43)CC1)O2 (stereo not shown) [Example 414, 1′-(isochroman-4-ylmethyl)spiro[chromane-2,4′-piperidine]] |  |  |
| 0.18 |  | 18 | c1ccc2c(c1)CCC2CN1CCC2(CCc3ccncc3O2)CC1 (stereo not shown) [Example 405, 1-((2,3-dihydro-1H-inden-1-yl)methyl)-3′,4′-dihydrospiro[piperidine-4,2′-pyrano[2,3-c]pyridine]] |  |  |
| 0.13 |  | 10 | N#Cc1ccccc1OC1CCN(CC2Cc3cccnc3C2)CC1 (stereo not shown) [Example 138, 2-((1-((6,7-dihydro-5H-cyclopenta[b]pyridin-6-yl)methyl)piperidin-4-yl)oxy) benzonitrile] |  |  |

| Compound | IC50 ([1]; read-out: 5HT2A IC50) [µM] | inhibition at 10 µM [2] [%] | inhibition at 1 µM [2] [%] | IC50 [2] [nM] | IC50 ([1]; 5HT2A IC50, μM) [µM] |
| --- | --- | --- | --- | --- | --- |
| Cc1ccc(N2CCN(C[C@@H](O)COC3CCCCC3)CC2)cc1 [Example 78, (R)-1-(cyclohexyloxy)-3-(4-(p-tolyl)piperazin-1-yl)propan-2-ol] | > 10 |  |  | 4660 |  |
| O[C@H](COC1CCCCC1)CN1CC2(CC(c3ccccc3)CO2)C1 (stereo partly drawn) [Example 360, (2S)-1-(cyclohexyloxy)-3-(7-phenyl-5-oxa-2-azaspiro[3.4]octan-2-yl)propan-2-ol] | 0.13 |  | 4 |  |  |
| COc1ccccc1O[C@@H]1CCN(CC2Cc3ccccc3C2)C[C@@H]1C [Example 144, (3S,4R)-1-((2,3-dihydro-1H-inden-2-yl)methyl)-4-(2-methoxyphenoxy)-3-methylpiperidine] | 0.27 |  |  | 540 |  |
| O=C1Cc2ccccc2N1CCN1CCC(Oc2ccc(F)cc2)CC1 [Example 185, 1-(2-(4-(4-fluorophenoxy)piperidin-1-yl)ethyl)indolin-2-one] |  |  | 19 |  | 0.01 |
| OC(COC1CCCCC1)CN1CCC2(CCN(c3ccccc3)CC2)C1 (stereo not shown) [Example 350, 1-(cyclohexyloxy)-3-(8-phenyl-2,8-diazaspiro[4.5]decan-2-yl)propan-2-ol] | 0.61 |  |  | 1680 |  |
| COc1ccc2c(c1)C(CN1CCC(OCc3ccccc3C)CC1)CC2 (stereo not shown) [Example 242, 1-((6-methoxy-2,3-dihydro-1H-inden-1-yl)methyl)-4-((2-methylbenzyl)oxy)piperidine] | 0.09 |  |  | 230 |  |
| Fc1ccc(O[C@@H]2CCN(CC3COCc4ccccc43)C2)cc1 (stereo partly drawn) [Example 11, (3R)-3-(4-fluorophenoxy)-1-(isochroman-4-ylmethyl)pyrrolidine] | 0.59 |  | 29 |  |  |
| N#Cc1ccc2c(c1)CCC2CN1CCC(Oc2ccc(F)cc2)CC1 (stereo not shown) [Example 121] | 0.07 |  |  | 2090 |  |
| OC(CO[C@@H]1CCc2ccccc21)CN1CCC(Oc2ccc(F)cc2)CC1 (stereo partly drawn) [Example 236, 1-(((R)-2,3-dihydro-1H-inden-1-yl)oxy)-3-(4-(4-fluorophenoxy)piperidin-1-yl)propan-2-ol] | 0.35 |  |  | 550 |  |
| O[C@H](CO[C@@H]1CCc2ccccc21)CN1CC[C@@H](Oc2ccc(F)cc2)C1 [Example 46, (S)-1-(((R)-2,3-dihydro-1H-inden-1-yl)oxy)-3-((R)-3-(4-fluorophenoxy)pyrrolidin-1-yl)propan-2-ol] | 0.03 |  | 41 |  |  |
| c1ccc([C@H]2COC3(CCN(C[C@H]4CCc5ccccc54)CC3)C2)cc1 (single isomer, unassigned) [Compound 377] | 0.03 |  |  | 790 |  |
